Measurements published in PMC11200219 (JACS Au, 2024).

Key:
[1] = biological target: T1, bovine pancreatic DNase I (Bos taurus, UniProt P00639); assay: DNase I assay; type: biochemical; conditions: in the absence of Mn007
[2] = biological target: T1, bovine pancreatic DNase I; conditions: cited from earlier work
[3] = stated in the introduction without reference; cited from earlier work

T1 sequence (P00639 23-282): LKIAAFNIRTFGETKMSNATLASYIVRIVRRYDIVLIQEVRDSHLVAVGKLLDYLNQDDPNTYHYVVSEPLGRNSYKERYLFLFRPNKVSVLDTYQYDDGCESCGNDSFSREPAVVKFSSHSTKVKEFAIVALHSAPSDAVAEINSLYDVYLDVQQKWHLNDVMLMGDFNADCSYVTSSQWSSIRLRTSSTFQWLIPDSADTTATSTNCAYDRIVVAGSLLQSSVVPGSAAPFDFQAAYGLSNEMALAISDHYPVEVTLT

Compound | Effect on activity of DNase I [1] | Inhibition of bovine pancreatic DNase I (reported) [2] | Cytotoxicity [3]
CC(O)COC[C@H]1O[C@@H]2O[C@H]3[C@H](O)[C@@H](O)[C@@H](O[C@H]4[C@H](O)[C@@H](O)[C@@H](O[C@H]5[C@H](O)[C@@H](O)[C@@H](O[C@H]6[C@H](O)[C@@H](O)[C@@H](O[C@H]7[C@H](O)[C@@H](O)[C@@H](O[C@H]8[C@H](O)[C@@H](O)[C@@H](O[C@H]1[C@H](O)[C@H]2O)O[C@@H]8COCC(C)O)O[C@@H]7COCC(C)O)O[C@@H]6COCC(C)O)O[C@@H]5COCC(C)O)O[C@@H]4COCC(C)O)O[C@@H]3COCC(C)O (stereo partly drawn) [HyβCD, 2-Hydroxypropyl-β-cyclodextrin] | did not affect the activity of DNase I |  | 
actin |  | reported to inhibit | 
O=C(O)CN(CCN(CC(=O)O)CC(=O)O)CC(=O)O [EDTA] |  | reported to inhibit | 
CN(C)c1ccc(C(=C2C=CC(=[N+](C)C)C=C2)c2ccc(N(C)C)cc2)cc1 [crystal violet] |  | reported to inhibit | show cytotoxicity
